The text below walks through data of patent US20250032443A1, “TREATMENT OF MYOTONIC DISORDERS” (University of Rochester, priority 2021, published 2025).

In assay [1] the test system is Cav1.1^Δe29/ClC-1^−/− mice. Kind of assay: Body weight measurements in Cav1.1^Δe29/ClC-1^−/− mice. The class given is in vivo, mouse. As to the method:
Mice were provided food cups immediately after weaning, and food was changed daily. No other food source was given, but water was provided and changed weekly along with cages.
Body weight of the mice was measured every other day following weaning to the end of terminal experimentation. For statistical analysis, two-way ANOVA was performed on the average of each week's measurements. Percent body weight change at 10 weeks was determined with the first weight measurement taken post-weaning, and the body weight reached at 10 weeks.

Assay [2] has as its system Cav1.1^Δe29/ClC-1^−/− mice. Kind of assay: Time of righting reflex in Cav1.1^Δe29/ClC-1^−/− mice. The class given is in vivo, mouse. Here is the method:
Mice were held in a supine position on a level surface and then released. Two persons began timing immediately after release, and timing was stopped once all four paws were down on the surface. This was repeated for a total of 10 timed righting responses with a minimum of five minutes in between each recording to avoid myotonic warm-up. Recordings less than a second were recorded as “1,” and righting was considered a failure if righting took more than 60 seconds. If failure was reached, no further recordings were measured for that mouse for that week. The two longest and two shortest recording for each mouse was removed, and the average of the middle 6 recordings were used for analysis. Two-way ANOVA on the week-to-week results and one-way ANOAV with multiple comparisons for the timepoint data (10-week and 20-week) were performed.

The test system of assay [3] is Cav1.1^Δe29/ClC-1^−/− mice. The experiment in a line: Whole body plethysmography in Cav1.1^Δe29/ClC-1^−/− mice. The class given is in vivo, mouse. Here is the method:
Whole body plethysmography (Buxco® Small Animal Whole Body Plethysmography, Data Science Internation) was used to measure respiratory function at 10 weeks (all groups) and 20 weeks (excluding untreated Cav1.1^Δe29/ClC-1^−/−). Mice were acclimated to the system for two days, with data being collected on day three. […] Average data from the 10-minute acquisition period for frequency (Breath/min) and tidal volume (mL) were analyzed for statistics by one-way ANOVA with multiple comparisons.

Assay [4] has as its system EDL muscle of Cav1.1^Δe29/ClC-1^−/− mice. The experiment in a line: In vitro muscle contraction of EDL isolated from long-term orally treated mice (no drug in bath). The format is in vivo, mouse. The note with it: 20-weeks-of-age, amlodipine treatment.
In assay [5] the test system is diaphragm strip of Cav1.1^Δe29/ClC-1^−/− mice. The experiment in a line: In vitro muscle contraction of diaphragm strips isolated from long-term orally treated mice (no drug in bath). The class given is in vivo, mouse.
In another assay the test system is myotonic WT EDL. The experiment in a line: Myotonia, ex vivo EDL incubated with 9-AC. Set-up: species or system mouse.
Another assay has as its system myotonic Cav1.1^Δe29 EDL. Kind of assay: Myotonia, ex vivo EDL incubated with 9-AC. Set-up: species or system mouse.
The test system of assay [6] is WT and Cav1.1^Δe29 EDLs (no 9AC). Kind of assay: Myotonia protocol, ex vivo EDL without 9-AC. Set-up: species or system mouse. Conditions: 10 mM amlodipine in the bath.
In assay [7] the test system is Cav1.1^Δe29+9-AC EDL muscle. The experiment in a line: Transient weakness, ex vivo EDL made myotonic with 9-AC. Set-up: initial force generation drop: dose or concentration left out as unconfirmed. Conditions: for transient weakness: 20-wk mice.
The subject of assay [8] is non-myotonic and myotonic WT and Cav1.1^Δe29 mouse muscle. Kind of assay: Peak contraction force of non-myotonic and myotonic ex vivo EDL, drug in bath. Conditions: 5 mM and 20 mM verapamil in bath, with or without 100 mM 9-AC; 20-wk mice.
In a further assay the test system is WT+9-AC EDL muscle. The experiment in a line: Transient weakness, ex vivo EDL made myotonic with 9-AC. The note with it: in bath, 20-wk mice.
The mark [9] stands for this setting: 5 mg/kg/day amlodipine vs untreated.
Where [10] appears, read: 20-weeks of age, amlodipine treated vs WT.

For `CCOC(=O)C1=C(COCCN)NC(C)=C(C(=O)OC)C1c1ccccc1Cl` (racemic) [amlodipine, (RS)-3-ethyl 5-methyl 2-[(2-aminoethoxy)methyl]-4-(2-chlorophenyl)-6-methyl-1,4-dihydropyridine-3,5-dicarboxylate], in assay [1] (5 mg/kg/day amlodipine vs WT), the “percent body weight change compared to WT” value was “not significantly different”. Also, in assay [1] (setting [9]), the “percent body weight change from weaning at 10 weeks” value is “significant improvement”. The “time of righting reflex, week-to-week, compared to ClC-1^−/− alone mice” value in [2] (5 mg/kg/day amlodipine) is “no significant difference in righting”. In addition, the “average time of righting reflex compared to WT mice” value in [2] (5 mg/kg/day amlodipine vs WT) was “not a significant difference in time of righting”. In assay [2] (setting [9]), the “average time of righting reflex at 10- and 20-week of age” value is “significantly improve time of righting”; the “time of righting reflex, weekly” value is “significantly improves time of righting”. Besides, in assay [3] (10-week, amlodipine treated vs untreated), the minute ventilation result is listed as “not improved”. In assay [3] (10-weeks, 5 mg/kg/day amlodipine), the frequency of respiration result is “reduction in the frequency”. Also, in assay [3] (setting [10]), the “frequency of respiration compared to WT” value is recorded as “not significantly different” and the “minute ventilation compared to WT” value was “significant reduction”. For the same compound, the respiratory function overall entry in assay [3] (amlodipine treatment) is on record as “moderately impacted”. Further, in assay [4], the “muscle function and muscle force generation in EDL” value was “not a significant impact”. Besides, the “muscle function and muscle force generation in diaphragm” value in assay [5] (20-weeks-of-age, amlodipine treatment) is “not a significant impact”. The “diaphragm force reduction at 150 Hz and in frequency dependence protocol, compared to ClC-1^−/− alone mice” value in assay [5] (20-wk, amlodipine treated) is recorded as “comparable”. In addition, the “diaphragm strip force generation compared to WT diaphragm” value in [5] (20-wk, amlodipine treated vs WT) was “force generation reduction”. Besides, the myotonia result in the assay with myotonic WT EDL (10 mM amlodipine) is on record as “reduced myotonia”. Also, in the assay with myotonic Cav1.1^Δe29 EDL (10 mM amlodipine), the myotonia result is reported as “reduction in the myotonia”; the “myotonia, difference between WT and Cav1.1^Δe29, first tetanus” value is reported as “significant difference”. For the same compound, in the assay on myotonic Cav1.1^Δe29 EDL (10 mM amlodipine, 100 mM 9-AC), the “myotonia, difference between WT and Cav1.1^Δe29, following tetani” value is given as “no difference”. The “myotonia (integration normalized to specific force) without 9AC” value in assay [6] is “has no affect”. In [7] (10 mm amlodipine in the bath), the “initial force generation drop” value is “improved” and the transient weakness result is “improvement to transient weakness”.

Consider `COc1ccc(CCN(C)CCCC(C#N)(c2ccc(OC)c(OC)c2)C(C)C)cc1OC` (racemic) [verapamil, (RS)-2-(3,4-Dimethoxyphenyl)-5-{[2-(3,4-dimethoxyphenyl)ethyl]-(methyl)amino}-2-prop-2-ylpentanenitrile], for which the peak contraction force result in [8] is on record as “does not reduce peak contraction force”. The transient weakness result in the assay on WT+9-AC EDL muscle (5 mM verapamil) is “improve transient weakness”; in the assay on WT+9-AC EDL muscle (20 mM verapamil), “improve transient weakness”; in [7] (5 mM verapamil, in bath) it was “improve transient weakness”; in [7] (20 um verapamil, in bath), “significant and robust”.

As to `COC(=O)C1=C(C)NC(C)=C(C(=O)OC)C1c1ccccc1[N+](=O)[O-]` [nifedipine, 3,5-dimethyl 2,6-dimethyl-4-(2-nitrophenyl)-1,4-dihydropyridine-3,5-dicarboxylate], the myotonia entry in the assay on myotonic WT EDL (75 nM nifedipine) is listed as “reduced myotonia”; with myotonic Cav1.1^Δe29 EDL (75 nM nifedipine) it was “reduction in the myotonia”. Moreover, in assay [7] (10 mM nifedipine), the “initial drop in force generation between the first and second tetani” value is “improved”. Besides, the transient weakness entry in assay [7] (10 mM nifedipine in the bath) is “significant improvement in transient weakness”.
